From BindingDB's records for doi:10.1016/s0960-894x(99)00094-3 (Cold Spring Harbor Laboratory, 1999)
pIC50: −log10 of the molar value.

What was measured:
[1] = Compound was evaluated for concentration that caused 50% inhibition of bovine Farnesyltransferase
[2] = Compound was evaluated for concentration that caused 50% inhibition of yeast Farnesyltransferase (expressed as a GST fusion protein in Escherichia coli)

pIC50 [1]	pIC50 [2]	SMILES
< 3.70	–	CSCC[C@H](NC(=O)[C@@H]1CC[C@@H]2CCC[C@H](NC(=O)[C@H](N)CS)C(=O)N21)C(=O)O [(S)-2-{[(3S,6S,9aS)-6-((S)-2-Amino-3-mercapto-propionylamino)-5-oxo-octahydro-pyrrolo[1,2-a]azepine-3-carbonyl]-amino}-4-methylsulfanyl-butyric acid]
< 3.70	–	CSCCC(NC(=O)[C@@H]1CC[C@@H]2CC[C@](Cc3ccccc3)(NC(=O)[C@@H](N)CS)C(=O)N21)C(=O)O (stereo partly drawn) [(S)-2-{[(3S,6R,8aR)-6-((R)-2-Amino-3-mercapto-propionylamino)-6-benzyl-5-oxo-octahydro-indolizine-3-carbonyl]-amino}-4-methylsulfanyl-butyric acid]
7.68	6.52	CSCC[C@H](NC(=O)[C@H](Cc1ccccc1)NC[C@@H](NC[C@@H](N)CS)C(C)C)C(=O)O [N-[2(S)-[2(R)-amino-3-mercaptopropylamino]-3-methylbutyl]-Phe-Met-OH]
–	5.30	CSCC[C@H](NC(=O)[C@@H]1CC[C@@H]2CC[C@](Cc3ccccc3)(NC(=O)[C@H](CS)NC(=O)OCC3c4ccccc4-c4ccccc43)C(=O)N21)C(=O)O [(S)-2-({(3S,6R,8aR)-6-Benzyl-6-[(R)-2-(9H-fluoren-9-ylmethoxycarbonylamino)-3-mercapto-propionylamino]-5-oxo-octahydro-indolizine-3-carbonyl}-amino)-4-methylsulfanyl-butyric acid]
